TGI and GI50 data for 15 molecules are collected here from PubChem BioAssay (NCI).

Test systems include U251 CNS; SK-OV-3 ovarian; HOP-62 NSCLC; OVCAR-3 ovarian; NCI-H460 lung; KM12 colon; A549 NSCLC; RXF 393 renal; HOP-92 NSCLC; MDA-N.
Assay in all cases: DTP human tumour cell line panel, 48 h

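In this assay, cells in 96-well plates receive the compound at five concentrations for 48 hours. Endpoints are linearly interpolated between the surrounding concentrations. Here, GI50 denotes the concentration required for 50% inhibition of growth. Definition used: TGI = concentration required for complete inhibition of growth.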

Turning to `COc1ccc(N2CN(C)CSC2=S)cc1`, the total growth inhibition concentration (TGI) in the assay on U251 CNS is over 100 µM; with SK-OV-3 ovarian, 66.8 µM; in the assay with HOP-62 NSCLC, 61.5 µM; with OVCAR-3 ovarian, 24.4 µM; in the assay with NCI-H460 lung, over 100 µM; with KM12 colon, over 100 µM. Further, the TGI in the assay with A549 NSCLC and in the assay on RXF 393 renal was over 100 µM each time.

`O=C(NC12CC3CC(CC(C3)C1)C2)C(=O)c1c[nH]c2ccc(Br)cc12`: the TGI in the assay with U251 CNS turned out to be 49.2 µM; in the assay with SK-OV-3 ovarian, 60.8 µM; with OVCAR-3 ovarian, 38.6 µM; in the assay with HOP-92 NSCLC, 48.1 µM; in the assay on NCI-H460 lung, 27 µM; in the assay on KM12 colon it was 41.7 µM. Further, the TGI stood at 42.4 µM in the assay with A549 NSCLC and 6.39 µM in the assay on RXF 393 renal.

On to `COc1cc(N)c2[nH]c3c(C)ccc(C)c3c2c1`, for which the TGI in the assay with HOP-62 NSCLC, with OVCAR-3 ovarian, in the assay on NCI-H460 lung, in the assay on KM12 colon and with A549 NSCLC was over 100 µM each time.

`CC(=O)NNC(=S)/N=C\c1c(O)c2ccccc2oc1=O`: the total growth inhibition concentration (TGI) in the assay on U251 CNS, in the assay on HOP-62 NSCLC, in the assay with OVCAR-3 ovarian, with NCI-H460 lung, in the assay with MDA-N and in the assay on KM12 colon was over 100 µM throughout. Besides, the TGI in the assay on A549 NSCLC and in the assay on RXF 393 renal was over 100 µM each time.

`C=CCNc1nc(O)c(/C=C2\C=Nc3ncccc32)s1`: the GI50 with U251 CNS is 2.07 µM; with SK-OV-3 ovarian, 2.21 µM; in the assay with HOP-62 NSCLC, 1.84 µM; with OVCAR-3 ovarian, 2.21 µM; in the assay on HOP-92 NSCLC, 0.227 µM; in the assay with NCI-H460 lung it was 2.74 µM. The GI50 with KM12 colon is 2.51 µM; in the assay with A549 NSCLC, 7.08 µM; with RXF 393 renal it was 2.07 µM. In addition, the total growth inhibition concentration (TGI) in the assay with U251 CNS turned out to be 4.35 µM; in the assay with SK-OV-3 ovarian, 8.66 µM; in the assay on HOP-62 NSCLC, 5.77 µM; in the assay with OVCAR-3 ovarian, 7.29 µM; with HOP-92 NSCLC, 6.38 µM; in the assay on NCI-H460 lung, 9.96 µM. The values for the TGI in the assay with KM12 colon, in the assay on A549 NSCLC and in the assay on RXF 393 renal were 8.23 µM, 19.4 µM and 4.25 µM, respectively.

With `N#CNC(=NCc1ccccc1)NCCc1c[nH]c2ccccc12`, the TGI with U251 CNS, in the assay with SK-OV-3 ovarian, in the assay on HOP-62 NSCLC, in the assay with OVCAR-3 ovarian, with NCI-H460 lung and in the assay with KM12 colon was over 100 µM in each case. Also, the concentration for total growth inhibition (TGI) with A549 NSCLC and in the assay with RXF 393 renal was over 100 µM each time.

Consider `O=C(N/N=C\c1cccs1)c1ccncc1`, for which the total growth inhibition concentration (TGI) in the assay with U251 CNS, in the assay with SK-OV-3 ovarian, with HOP-62 NSCLC, in the assay on OVCAR-3 ovarian, in the assay on HOP-92 NSCLC and in the assay on NCI-H460 lung was over 100 µM in each case. The TGI with KM12 colon, with A549 NSCLC and in the assay on RXF 393 renal was over 100 µM in each case.

`Cn1cc(-c2nc(-c3c[nH]c4ccncc34)cs2)c2ccccc21`: the GI50 with SK-OV-3 ovarian was 1.59 µM; with OVCAR-3 ovarian, 1.69 µM; in the assay on KM12 colon it was 1.11 µM; in the assay on A549 NSCLC, 1.83 µM. The total growth inhibition concentration (TGI) was 3.23 µM in the assay on SK-OV-3 ovarian, 3.09 µM with OVCAR-3 ovarian, 2.35 µM in the assay on KM12 colon and 3.46 µM in the assay with A549 NSCLC.

With `Cc1c(OCCCOc2ccc3c(=O)cc(-c4ccccc4)oc3c2C)ccc2c(=O)cc(-c3ccccc3)oc12`, the TGI in the assay with U251 CNS, with SK-OV-3 ovarian, in the assay with HOP-62 NSCLC, in the assay on OVCAR-3 ovarian, in the assay on HOP-92 NSCLC and with NCI-H460 lung was over 100 µM in each case. Further, the TGI in the assay with KM12 colon, with A549 NSCLC and with RXF 393 renal was over 100 µM each time.

In the case of `NC(=O)COc1c(Br)cc(Br)cc1Br`, the TGI in the assay with U251 CNS, in the assay with SK-OV-3 ovarian, with HOP-62 NSCLC, in the assay with OVCAR-3 ovarian, in the assay on NCI-H460 lung and in the assay on KM12 colon was over 100 µM in each case. In the assay with A549 NSCLC, this molecule came in with a concentration for total growth inhibition (TGI) of over 100 µM.

Consider `CC(=O)Oc1c2c(c(OC(C)=O)c3c1n(C(C)=O)c1ccccc1n3C(C)=O)n(C(C)=O)c1ccccc1n2C(C)=O`, for which the TGI came out at 29.5 µM in the assay with U251 CNS; 50 µM in the assay with SK-OV-3 ovarian; 53.5 µM with HOP-62 NSCLC; 5.68 µM in the assay with OVCAR-3 ovarian; 15.4 µM with NCI-H460 lung; 31.5 µM in the assay on KM12 colon. Also, the TGI with A549 NSCLC was 24.2 µM; with RXF 393 renal it was 26.8 µM.

Take `COC1=CC(=O)C2C(C1=O)[C@@H]1c3ccccc3OC(C)(C)[C@H]21` (some centres undefined): the concentration for total growth inhibition (TGI) in the assay with U251 CNS was over 100 µM; in the assay with SK-OV-3 ovarian, over 100 µM; in the assay with HOP-62 NSCLC, over 100 µM; with OVCAR-3 ovarian it was 28.3 µM; in the assay on HOP-92 NSCLC, 35.4 µM; in the assay on NCI-H460 lung, over 100 µM. The TGI with KM12 colon was over 100 µM; with A549 NSCLC, over 100 µM; with RXF 393 renal it was 27.1 µM.

Regarding `COc1cc(NS(C)(=O)=O)ccc1NCc1cnc2ccc3[nH]cccc3c12`, the total growth inhibition concentration (TGI) in the assay with U251 CNS was over 81.2 µM; in the assay with SK-OV-3 ovarian, 48 µM; in the assay on HOP-62 NSCLC, 55.6 µM; in the assay on OVCAR-3 ovarian it was 53.2 µM; with HOP-92 NSCLC, 93.9 µM; with NCI-H460 lung, 42.1 µM. In addition, the TGI with KM12 colon was 37.6 µM; with A549 NSCLC, over 96.3 µM; with RXF 393 renal it was 21.3 µM.

Turning to `Cc1ccc2n(c1)cc(-c1ccc(/C=N/NC(=N)N/N=C/c3ccc(-c4cn5cc(C)ccc5[n+]4C)cc3)cc1)[n+]2C`, the TGI in the assay with U251 CNS, in the assay on SK-OV-3 ovarian, in the assay with HOP-62 NSCLC, in the assay on NCI-H460 lung, in the assay with MDA-N and in the assay with KM12 colon was over 100 µM throughout. Also, the TGI in the assay on A549 NSCLC was over 100 µM.

For `Cc1nc2ccccc2c(=O)n1NC(=O)c1ccccc1[N+](=O)[O-]`, the TGI with U251 CNS, with SK-OV-3 ovarian, in the assay on HOP-62 NSCLC, with OVCAR-3 ovarian, in the assay with HOP-92 NSCLC and in the assay on NCI-H460 lung was over 100 µM throughout. Further, the total growth inhibition concentration (TGI) with KM12 colon and with A549 NSCLC was over 100 µM each time.
